# Test results taken from patent publication US11179383B2 (Gilead Sciences, Inc., priority 2018, dated 2021).
# Target: T1, α4β7 integrin (Homo sapiens, UniProt P13612+P26010)
# T1 construct: monitoring the capture of α4β7 integrin expressing cells on a recombinant MadCAM-1 extracellular domain-coated plate; endogenous in cells; host or cells: RPMI8866 cells
# T1 sequence (P13612 34-1032): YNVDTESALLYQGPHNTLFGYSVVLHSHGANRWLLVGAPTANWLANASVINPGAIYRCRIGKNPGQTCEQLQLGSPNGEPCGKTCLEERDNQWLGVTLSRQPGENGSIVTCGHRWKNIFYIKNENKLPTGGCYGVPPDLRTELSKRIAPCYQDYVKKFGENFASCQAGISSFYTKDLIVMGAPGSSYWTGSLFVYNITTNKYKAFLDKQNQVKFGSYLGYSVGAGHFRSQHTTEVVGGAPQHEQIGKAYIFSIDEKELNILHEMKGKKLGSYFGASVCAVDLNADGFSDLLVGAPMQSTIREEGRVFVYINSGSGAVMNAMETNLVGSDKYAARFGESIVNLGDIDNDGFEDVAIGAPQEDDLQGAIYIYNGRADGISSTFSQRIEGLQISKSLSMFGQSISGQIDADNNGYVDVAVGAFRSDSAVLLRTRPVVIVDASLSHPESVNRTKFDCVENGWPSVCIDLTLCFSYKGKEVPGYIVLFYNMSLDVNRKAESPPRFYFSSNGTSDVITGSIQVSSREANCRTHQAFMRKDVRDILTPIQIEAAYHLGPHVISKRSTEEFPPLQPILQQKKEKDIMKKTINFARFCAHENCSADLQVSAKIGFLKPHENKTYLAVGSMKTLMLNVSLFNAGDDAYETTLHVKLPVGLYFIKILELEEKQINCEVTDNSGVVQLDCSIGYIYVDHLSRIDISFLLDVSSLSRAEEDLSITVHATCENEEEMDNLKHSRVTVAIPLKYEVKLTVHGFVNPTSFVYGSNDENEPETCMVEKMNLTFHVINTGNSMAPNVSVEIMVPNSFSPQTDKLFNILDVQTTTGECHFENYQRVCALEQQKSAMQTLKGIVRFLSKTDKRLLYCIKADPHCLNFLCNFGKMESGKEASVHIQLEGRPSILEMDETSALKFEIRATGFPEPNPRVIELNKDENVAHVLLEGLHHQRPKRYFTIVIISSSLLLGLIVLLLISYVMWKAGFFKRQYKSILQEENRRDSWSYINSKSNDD
# T1 sequence (P26010 20-798): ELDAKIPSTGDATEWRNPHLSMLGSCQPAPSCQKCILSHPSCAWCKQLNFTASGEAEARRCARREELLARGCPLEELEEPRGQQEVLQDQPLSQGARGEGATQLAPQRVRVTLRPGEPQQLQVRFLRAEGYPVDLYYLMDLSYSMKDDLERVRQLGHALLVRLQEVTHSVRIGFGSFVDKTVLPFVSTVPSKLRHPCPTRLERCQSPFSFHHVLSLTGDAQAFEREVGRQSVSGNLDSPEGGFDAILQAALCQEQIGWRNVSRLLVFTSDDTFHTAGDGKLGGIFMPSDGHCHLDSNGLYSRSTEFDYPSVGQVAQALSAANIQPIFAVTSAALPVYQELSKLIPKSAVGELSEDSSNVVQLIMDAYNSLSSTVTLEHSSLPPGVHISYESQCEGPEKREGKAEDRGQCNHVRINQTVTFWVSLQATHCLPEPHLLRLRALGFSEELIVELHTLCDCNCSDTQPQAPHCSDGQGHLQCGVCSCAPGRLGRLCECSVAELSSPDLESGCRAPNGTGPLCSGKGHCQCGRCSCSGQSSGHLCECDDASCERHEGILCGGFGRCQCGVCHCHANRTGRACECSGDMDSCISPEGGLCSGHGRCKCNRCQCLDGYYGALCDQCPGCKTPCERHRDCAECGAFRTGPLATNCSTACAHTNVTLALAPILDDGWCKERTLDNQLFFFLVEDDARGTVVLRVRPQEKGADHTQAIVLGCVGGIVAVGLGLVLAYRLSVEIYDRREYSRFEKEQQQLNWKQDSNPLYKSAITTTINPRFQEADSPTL
# Assay: α4β7 Integrin Cell Capture Assay
# Type: cell-based
# Conditions: capture of α4β7 integrin expressing RPMI8866 cells on recombinant MadCAM-1 extracellular domain-coated plate; DMEM+0.5% FBS+0.5 mM MnCl2; read-out: EC50 α4β7
# Outline: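 RPMI8866 cells in DMEM + 0.5% FBS + 0.5 mM MnCl2 preincubated with compound 1 h at 37 °C, then allowed to bind 30 min at 37 °C to plates coated with MAdCAM-1 extracellular domain (1.0 μg/mL). Cells fixed with glutaraldehyde, Hoechst-stained, imaged and bound cells counted; EC50 from cell count versus concentration.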
row,SMILES,EC50
1,"Cc1c(-c2ccc(C[C@H](NC(=O)c3c(Cl)cccc3Cl)C(=O)O)c3ncccc23)c(=O)n(C)c2ccc(Br)cc12 [Example 70, (S)-3-(6-bromo-1,4-dimethyl-2-oxo-1,2-dihydro-[3,5′-biquinolin]-8′-yl)-2-(2,6-dichlorobenzamido)propanoic acid]",55.1 nM
2,"COc1cccc(OC)c1-c1ccc(C[C@H](NC(=O)c2c(F)cc(NS(=O)(=O)c3ccc(-c4ccnc(F)c4)cc3)cc2F)C(=O)O)c2nccnc12 [Example 154, (S)-2-(2,6-difluoro-4-((4-(2-fluoropyridin-4-yl)phenyl)sulfonamido)benzamido)-3-(8-(2,6-dimethoxyphenyl)quinoxalin-5-yl)propanoic acid]",2.6 nM
3,"O=C(N[C@@H](Cc1ccc(-c2c(Cl)cc(F)cc2Cl)c2cccnc12)C(=O)O)c1c(F)cc(N2CCOCC2C(F)(F)F)cc1F (single isomer, unassigned) [Example 5]",702 nM
4,"Cc1c(-c2ccc(C[C@H](NC(=O)c3c(Cl)cccc3Cl)C(=O)O)c3ncccc23)c(=O)n(C)c2ccccc12 [Example 34, (S)-2-(2,6-dichlorobenzamido)-3-(1,4-dimethyl-2-oxo-1,2-dihydro-[3,5′-biquinolin]-8′-yl)propanoic acid]",4 nM
5,"CC[C@@H](Nc1cc(F)c(C(=O)N[C@@H](Cc2ccc(-c3c(OC)cc(C)n(C)c3=O)c3ccccc23)C(=O)O)c(F)c1)C(F)(F)F (single isomer, unassigned) [Example 130]",0.6 nM
6,"CCOCc1cc(OC)c(-c2cnc(C[C@H](NC(=O)c3c(F)cccc3F)C(=O)O)c3cccnc23)c(OC)c1 [Example 167, (S)-2-(2,6-difluorobenzamido)-3-(8-(4-(ethoxymethyl)-2,6-dimethoxyphenyl)-1,6-naphthyridin-5-yl)propanoic acid]",836 nM
7,"COc1cc(F)c(F)cc1-c1ccc(C[C@H](NC(=O)c2c(Cl)cccc2Cl)C(=O)O)c2nccc(Cl)c12 (single isomer, unassigned) [Example 95]",15.2 nM
8,"CCOCc1cc(OC)c(-c2ccc(C[C@H](NC(=O)c3c(F)cc(NS(=O)(=O)c4ccc(-c5ccnc(F)c5)cc4)cc3F)C(=O)O)c3nsnc23)c(OC)c1 [Example 149, (S)-2-(2,6-difluoro-4-((4-(2-fluoropyridin-4-yl)phenyl)sulfonamido)benzamido)-3-(7-(4-(ethoxymethyl)-2,6-dimethoxyphenyl)benzo[c]-[1,2,5]thiadiazol-4-yl)propanoic acid]",0.3 nM
9,"CC[C@@H](Nc1cc(F)c(C(=O)N[C@@H](Cc2ccc(-c3c(C(F)(F)F)cc(C)n(C)c3=O)c3ccccc23)C(=O)O)c(F)c1)C(F)(F)F (single isomer, unassigned) [Example 135]",1 nM
10,"CC[C@@H](Nc1cc(F)c(C(=O)N[C@@H](Cc2ccc(-c3c(C)cc(C)n(C)c3=O)c3ccccc23)C(=O)O)c(F)c1)C(F)(F)F (single isomer, unassigned) [Example 132]",13.7 nM
11,Cc1cc(N2CCOC[C@@H]2C(F)(F)F)cc(F)c1C(=O)N[C@@H](Cc1ccc(-n2c(=O)c3ccncc3n(C)c2=O)n2nccc12)C(=O)O [Example 180],0.09 nM
12,"COc1c(F)cc(F)cc1-c1ccc(C[C@H](NC(=O)c2c(Cl)cccc2Cl)C(=O)O)c2ncccc12 [Example 42, (S)-2-(2,6-dichlorobenzamido)-3-(5-(3,5-difluoro-2-methoxyphenyl)quinolin-8-yl)propanoic acid]",152 nM
13,"CCOCc1cc(OC)c(-c2ccc(C[C@@H](NC(=O)c3c(F)cc(NS(=O)(=O)c4ccc(-c5ccnc(F)c5)cc4)cc3F)C(=O)O)c3ccncc23)c(OC)c1 (single isomer, unassigned) [Example 162]",1.7 nM
14,"Cn1c(=O)c(-c2ccc(C[C@H](NC(=O)c3c(Cl)cccc3Cl)C(=O)O)c3ncccc23)c(C(F)(F)F)c2ccccc21 (single isomer, unassigned) [Example 62]",3.2 nM
15,Cc1ccnc(-c2ccc(C[C@H](NC(=O)c3c(F)cc(N4CCOC[C@@H]4C(F)(F)F)cc3F)C(=O)O)c3ccccc23)c1C(F)(F)F [Example 122],1.1 nM
16,"Cc1c(-c2ccc(C[C@H](NC(=O)c3c(Cl)cccc3Cl)C(=O)O)c3ncccc23)c(=O)n(C)c2ccc(F)cc12 (single isomer, unassigned) [Example 11]",0.5 nM
17,"CC[C@@H](Nc1cc(F)c(C(=O)N[C@@H](Cc2ccc(-c3c(OC)cnn(C)c3=O)c3ccccc23)C(=O)O)c(F)c1)C(F)(F)F (single isomer, unassigned) [Example 137]",0.9 nM
18,"O=C(N[C@@H](Cc1ccc(-c2cc(F)c(F)cc2OC2CC2)c2ccccc12)C(=O)O)c1c(Cl)cccc1Cl [Example 116, (S)-3-(4-(2-cyclopropoxy-4,5-difluorophenyl)naphthalen-1-yl)-2-(2,6-dichlorobenzamido)propanoic acid]",72.6 nM
19,"CCOCc1cc(OC)c(-c2ncc(C[C@H](NC(=O)c3c(F)cc(N[C@H](CC)C(F)(F)F)cc3F)C(=O)O)c3ccccc23)c(OC)c1 [Example 168, (S)-2-(2,6-difluoro-4-(((R)-1,1,1-trifluorobutan-2-yl)amino)benzamido)-3-(1-(4-(ethoxymethyl)-2,6-dimethoxyphenyl)isoquinolin-4-yl)propanoic acid]",26.6 nM
20,"CC[C@@H](Nc1cc(F)c(C(=O)N[C@@H](Cc2ccc(-c3c(C)c4cc(F)ccc4n(C)c3=O)c3nccnc23)C(=O)O)c(F)c1)C(F)(F)F [Example 158, (S)-2-(2,6-difluoro-4-(((R)-1,1,1-trifluorobutan-2-yl)amino)benzamido)-3-(8-(6-fluoro-1,4-dimethyl-2-oxo-1,2-dihydroquinolin-3-yl)quinoxalin-5-yl)propanoic acid]",0.4 nM
21,"Cn1cccc(-c2ccc(C[C@H](NC(=O)c3c(Cl)cccc3Cl)C(=O)O)c3ncccc23)c1=O [Example 39, (S)-2-(2,6-dichlorobenzamido)-3-(5-(1-methyl-2-oxo-1,2-dihydropyridin-3-yl)quinolin-8-yl)propanoic acid]",74 nM
22,"COc1cc(F)cc(Cl)c1-c1ccc(C[C@H](NC(=O)c2c(Cl)cccc2Cl)C(=O)O)c2ncccc12 (single isomer, unassigned) [Example 54]",38.8 nM
23,"Cc1nn(C)nc1-c1ccc(C[C@H](NC(=O)c2c(Cl)cccc2Cl)C(=O)O)c2ncccc12 [Example 26, (S)-2-(2,6-dichlorobenzamido)-3-(5-(2,5-dimethyl-2H-1,2,3-triazol-4-yl)quinolin-8-yl)propanoic acid]",290 nM
24,"COc1cc(F)cc(C(F)(F)F)c1-c1ccc(C[C@H](NC(=O)c2c(Cl)cccc2Cl)C(=O)O)c2ncccc12 [Example 35, (2S)-2-(2,6-dichlorobenzamido)-3-(5-(4-fluoro-2-methoxy-6-(trifluoromethyl)phenyl)quinolin-8-yl)propanoic acid]",53.5 nM
25,"Cc1c(-c2ccc(C[C@H](NC(=O)c3c(Cl)cccc3Cl)C(=O)O)c3ccccc23)c(=O)n(C)c(=O)n1C (single isomer, unassigned) [Example 109]",2.1 nM
